In ChEMBL document CHEMBL1201862, “PubChem BioAssay data set” (2004):
Activity calls are given as the source filed them.

How the values were obtained:
[1] = system: Streptococcus sp. 'group A'; test: growth inhibition of control SK(-) GAS strain, dose response, counter-screen for streptokinase expression inhibitor project, luminescence, kanamycin, BacTiterGlo, confirmation (AID 1900); type: functional, organism-based
[2] = target: T1, Insulin-degrading enzyme (Homo sapiens, UniProt P14735); test: activators of recombinant IDE enzyme, dose response, counter-screen for IDE activator project, biochemical, fluorescence polarization (AID 588681)
T1 sequence (P14735 whole entry): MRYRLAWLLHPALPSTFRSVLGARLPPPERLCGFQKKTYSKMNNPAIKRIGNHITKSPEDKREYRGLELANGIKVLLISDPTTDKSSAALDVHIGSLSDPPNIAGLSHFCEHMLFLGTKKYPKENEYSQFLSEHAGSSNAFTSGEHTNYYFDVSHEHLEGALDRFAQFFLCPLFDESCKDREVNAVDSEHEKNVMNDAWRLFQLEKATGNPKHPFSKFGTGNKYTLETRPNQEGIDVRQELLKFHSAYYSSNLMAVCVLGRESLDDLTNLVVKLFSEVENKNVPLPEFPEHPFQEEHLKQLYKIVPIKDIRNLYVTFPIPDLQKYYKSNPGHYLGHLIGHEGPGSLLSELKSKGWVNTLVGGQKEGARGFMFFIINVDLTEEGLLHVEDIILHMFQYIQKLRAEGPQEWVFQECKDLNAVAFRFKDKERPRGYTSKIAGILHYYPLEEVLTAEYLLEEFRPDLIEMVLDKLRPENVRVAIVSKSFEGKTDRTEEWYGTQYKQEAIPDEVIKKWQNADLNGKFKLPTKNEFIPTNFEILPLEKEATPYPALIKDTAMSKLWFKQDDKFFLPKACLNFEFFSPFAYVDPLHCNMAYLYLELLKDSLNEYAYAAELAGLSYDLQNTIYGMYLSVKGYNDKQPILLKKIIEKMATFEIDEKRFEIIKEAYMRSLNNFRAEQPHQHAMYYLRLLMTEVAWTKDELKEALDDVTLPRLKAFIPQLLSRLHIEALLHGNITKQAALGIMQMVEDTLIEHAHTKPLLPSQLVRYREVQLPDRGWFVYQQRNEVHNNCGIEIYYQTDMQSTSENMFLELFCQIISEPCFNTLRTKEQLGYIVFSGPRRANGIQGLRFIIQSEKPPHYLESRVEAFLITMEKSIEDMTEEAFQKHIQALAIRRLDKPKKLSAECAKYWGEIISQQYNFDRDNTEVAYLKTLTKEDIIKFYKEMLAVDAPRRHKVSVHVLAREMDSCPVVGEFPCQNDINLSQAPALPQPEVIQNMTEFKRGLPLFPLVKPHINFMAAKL

[3] = system: Streptococcus; test: Group A Streptococcus viability loss, dose response, counter-screen for streptokinase expression inhibitor project, luminescence, BacTiterGlo (AID 1915); type: functional, organism-based;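 also: potency for reduction of bacterial viability or growth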
[4] = target: T2, Streptokinase A (Streptococcus pyogenes serotype M1, UniProt P10520); test: S. pyogenes streptokinase expression inhibitors, potency, dose response, plasminogen activation absorbance, OD405 (AID 1914); type: functional, Streptococcus pyogenes M1 GAS;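 also: secreted streptokinase activity via plasminogen activation per viability signal from cell pellet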
T2 sequence (P10520 whole entry): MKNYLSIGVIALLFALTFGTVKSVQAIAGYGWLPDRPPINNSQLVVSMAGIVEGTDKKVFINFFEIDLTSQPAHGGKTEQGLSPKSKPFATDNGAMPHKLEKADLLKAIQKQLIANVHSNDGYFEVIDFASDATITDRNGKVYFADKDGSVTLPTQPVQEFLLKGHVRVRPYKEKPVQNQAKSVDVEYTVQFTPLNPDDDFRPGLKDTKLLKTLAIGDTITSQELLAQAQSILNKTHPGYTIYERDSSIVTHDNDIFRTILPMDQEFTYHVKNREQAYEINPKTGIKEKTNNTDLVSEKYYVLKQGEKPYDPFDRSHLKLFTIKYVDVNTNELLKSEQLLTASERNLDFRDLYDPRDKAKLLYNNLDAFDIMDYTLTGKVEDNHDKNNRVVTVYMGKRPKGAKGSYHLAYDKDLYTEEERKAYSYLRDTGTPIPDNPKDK

[5] = system: HEK293; test: optical interference in Abeta FP readout, dose response, artefact control for IDE activator project, biochemical, fluorescence polarization (AID 588442); type: functional, cell-based; conditions: Homo sapiens
[6] = target: Heat shock protein HSP 90-alpha (Homo sapiens, UniProt P07900); type: functional, organism-based
[7] = target: T1, Insulin-degrading enzyme; test: activators of endogenous IDE in HEK cells, dose response, cell-based, fluorescence polarization (AID 588439); type: functional
[8] = system: HEK293; test: HEK cell cytotoxicity by LDH release, dose response, cytotoxicity control for IDE activator project, fluorescence, HEK cells (AID 588440); type: functional, cell-based; conditions: Homo sapiens;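 also: cytotoxicity by LDH release measuring loss of membrane integrity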
[9] = target: T3, Protein RecA (Mycobacterium tuberculosis, UniProt P9WHJ3); test: Fluorescence Cell-Free Homogeneous Dose Retest to Identify Inhibitors of RecA-Intein Splicing Activity. [Related pubchem assays (depositor defined):AID2097, AID2223, AID489010, AID492950]; type: functional
T3 sequence (P9WHJ3 whole entry): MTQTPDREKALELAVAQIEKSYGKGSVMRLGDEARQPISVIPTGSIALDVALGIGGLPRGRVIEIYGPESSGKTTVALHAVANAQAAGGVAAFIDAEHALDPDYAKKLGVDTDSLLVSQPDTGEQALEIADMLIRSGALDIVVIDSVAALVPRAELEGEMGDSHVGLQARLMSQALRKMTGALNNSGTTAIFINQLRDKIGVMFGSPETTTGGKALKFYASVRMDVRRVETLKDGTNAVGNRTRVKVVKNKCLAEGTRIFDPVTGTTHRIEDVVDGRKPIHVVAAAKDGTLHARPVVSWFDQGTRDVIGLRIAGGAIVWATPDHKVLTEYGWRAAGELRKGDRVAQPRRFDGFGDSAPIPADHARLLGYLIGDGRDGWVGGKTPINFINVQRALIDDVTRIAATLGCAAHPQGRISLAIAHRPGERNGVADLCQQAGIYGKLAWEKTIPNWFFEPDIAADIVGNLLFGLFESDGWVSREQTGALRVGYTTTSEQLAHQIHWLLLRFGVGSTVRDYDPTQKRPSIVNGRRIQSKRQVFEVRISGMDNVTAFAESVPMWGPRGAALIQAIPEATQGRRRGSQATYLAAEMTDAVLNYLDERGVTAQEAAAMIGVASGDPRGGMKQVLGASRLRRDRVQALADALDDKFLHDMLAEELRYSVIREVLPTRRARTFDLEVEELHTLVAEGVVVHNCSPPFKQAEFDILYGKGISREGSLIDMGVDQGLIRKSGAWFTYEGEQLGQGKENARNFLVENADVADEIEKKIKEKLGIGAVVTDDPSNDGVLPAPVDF

[10] = target: T4, Replicative DNA helicase DnaB (Mycobacterium tuberculosis, UniProt P9WMR3); test: DnaB intein splicing inhibitors, dose response, biochemical, cell-free fluorescence (AID 449749); type: functional
T4 sequence (P9WMR3 whole entry): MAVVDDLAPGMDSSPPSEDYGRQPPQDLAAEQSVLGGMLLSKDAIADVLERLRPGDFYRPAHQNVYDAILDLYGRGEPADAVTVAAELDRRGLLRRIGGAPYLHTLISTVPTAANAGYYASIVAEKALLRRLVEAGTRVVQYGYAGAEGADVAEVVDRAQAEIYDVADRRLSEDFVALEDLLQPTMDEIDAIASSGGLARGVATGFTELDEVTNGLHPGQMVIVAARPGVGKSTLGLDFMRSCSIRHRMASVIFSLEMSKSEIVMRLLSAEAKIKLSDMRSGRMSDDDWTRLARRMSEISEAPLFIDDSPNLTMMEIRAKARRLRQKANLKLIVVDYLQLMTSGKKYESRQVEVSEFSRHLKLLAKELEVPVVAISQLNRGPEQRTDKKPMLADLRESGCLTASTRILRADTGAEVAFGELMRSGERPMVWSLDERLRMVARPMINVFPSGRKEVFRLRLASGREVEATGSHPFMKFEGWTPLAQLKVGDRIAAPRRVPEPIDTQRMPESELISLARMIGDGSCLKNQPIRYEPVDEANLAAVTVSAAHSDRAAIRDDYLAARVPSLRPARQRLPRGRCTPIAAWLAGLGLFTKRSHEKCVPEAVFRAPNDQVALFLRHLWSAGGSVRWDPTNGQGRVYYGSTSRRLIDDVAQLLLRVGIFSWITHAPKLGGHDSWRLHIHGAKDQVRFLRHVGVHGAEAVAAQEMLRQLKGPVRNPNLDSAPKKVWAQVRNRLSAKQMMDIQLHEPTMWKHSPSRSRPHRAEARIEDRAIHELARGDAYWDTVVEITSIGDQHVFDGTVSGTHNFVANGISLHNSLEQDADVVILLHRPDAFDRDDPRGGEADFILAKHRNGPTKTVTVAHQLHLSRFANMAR

[11] = target: Mitochondrial peptide methionine sulfoxide reductase (Bos taurus, UniProt P54149); test: Absorbance-based biochemical high throughput dose response assay for activators of Methionine sulfoxide reductase A (MsrA).; type: functional
Mitochondrial peptide methionine sulfoxide reductase, sequence (P54149 whole entry): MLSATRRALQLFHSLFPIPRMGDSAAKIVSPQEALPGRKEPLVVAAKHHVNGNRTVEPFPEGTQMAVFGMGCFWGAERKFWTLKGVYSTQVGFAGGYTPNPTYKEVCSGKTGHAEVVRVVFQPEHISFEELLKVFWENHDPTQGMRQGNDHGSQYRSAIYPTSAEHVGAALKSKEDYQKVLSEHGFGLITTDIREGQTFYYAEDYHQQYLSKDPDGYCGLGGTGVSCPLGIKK

[12] = AlphaScreen signal interference compounds, dose response, artefact control for ARNT-TACC3 interaction inhibitor project, biochemical, luminescence, cherry-pick (AID 651705); type: functional;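 also: AlphaScreen bead proximity signal that flags compounds interfering with the detection technology; potency reflects signal decrease which marks the compound as an assay artifact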
[13] = target: T5, Hexokinase HKDC1 (Homo sapiens, UniProt Q2TB90); test: HKDC1 hexokinase inhibitors, dose response, biochemical, W721R variant (AID 504729); type: functional
T5 sequence (Q2TB90 whole entry): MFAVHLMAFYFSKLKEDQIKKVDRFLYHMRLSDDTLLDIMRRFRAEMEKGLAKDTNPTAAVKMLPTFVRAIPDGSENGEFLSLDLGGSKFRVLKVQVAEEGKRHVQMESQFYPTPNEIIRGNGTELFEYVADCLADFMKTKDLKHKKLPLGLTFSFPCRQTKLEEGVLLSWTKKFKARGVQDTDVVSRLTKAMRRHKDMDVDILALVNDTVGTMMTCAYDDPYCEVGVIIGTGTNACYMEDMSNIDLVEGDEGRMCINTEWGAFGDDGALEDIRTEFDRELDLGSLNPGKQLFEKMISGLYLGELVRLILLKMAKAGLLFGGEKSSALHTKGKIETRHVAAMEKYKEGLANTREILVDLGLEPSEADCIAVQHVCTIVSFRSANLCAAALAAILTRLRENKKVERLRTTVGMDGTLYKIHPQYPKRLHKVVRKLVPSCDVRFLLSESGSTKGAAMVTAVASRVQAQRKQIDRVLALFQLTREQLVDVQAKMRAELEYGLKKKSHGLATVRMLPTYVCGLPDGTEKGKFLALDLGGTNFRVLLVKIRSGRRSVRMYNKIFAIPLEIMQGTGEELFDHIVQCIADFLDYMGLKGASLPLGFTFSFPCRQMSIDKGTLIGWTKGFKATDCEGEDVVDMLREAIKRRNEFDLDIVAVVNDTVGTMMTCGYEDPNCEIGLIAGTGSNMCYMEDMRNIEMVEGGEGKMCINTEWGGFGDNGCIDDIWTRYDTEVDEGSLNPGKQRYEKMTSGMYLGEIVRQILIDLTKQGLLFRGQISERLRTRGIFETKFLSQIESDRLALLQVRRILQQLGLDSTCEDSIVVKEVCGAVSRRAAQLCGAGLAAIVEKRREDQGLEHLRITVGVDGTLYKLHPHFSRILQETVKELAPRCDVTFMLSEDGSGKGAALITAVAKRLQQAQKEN

[14] = target: Histone-lysine N-methyltransferase NSD2 (Homo sapiens, UniProt O96028); type: biochemical
Histone-lysine N-methyltransferase NSD2, sequence (O96028 whole entry): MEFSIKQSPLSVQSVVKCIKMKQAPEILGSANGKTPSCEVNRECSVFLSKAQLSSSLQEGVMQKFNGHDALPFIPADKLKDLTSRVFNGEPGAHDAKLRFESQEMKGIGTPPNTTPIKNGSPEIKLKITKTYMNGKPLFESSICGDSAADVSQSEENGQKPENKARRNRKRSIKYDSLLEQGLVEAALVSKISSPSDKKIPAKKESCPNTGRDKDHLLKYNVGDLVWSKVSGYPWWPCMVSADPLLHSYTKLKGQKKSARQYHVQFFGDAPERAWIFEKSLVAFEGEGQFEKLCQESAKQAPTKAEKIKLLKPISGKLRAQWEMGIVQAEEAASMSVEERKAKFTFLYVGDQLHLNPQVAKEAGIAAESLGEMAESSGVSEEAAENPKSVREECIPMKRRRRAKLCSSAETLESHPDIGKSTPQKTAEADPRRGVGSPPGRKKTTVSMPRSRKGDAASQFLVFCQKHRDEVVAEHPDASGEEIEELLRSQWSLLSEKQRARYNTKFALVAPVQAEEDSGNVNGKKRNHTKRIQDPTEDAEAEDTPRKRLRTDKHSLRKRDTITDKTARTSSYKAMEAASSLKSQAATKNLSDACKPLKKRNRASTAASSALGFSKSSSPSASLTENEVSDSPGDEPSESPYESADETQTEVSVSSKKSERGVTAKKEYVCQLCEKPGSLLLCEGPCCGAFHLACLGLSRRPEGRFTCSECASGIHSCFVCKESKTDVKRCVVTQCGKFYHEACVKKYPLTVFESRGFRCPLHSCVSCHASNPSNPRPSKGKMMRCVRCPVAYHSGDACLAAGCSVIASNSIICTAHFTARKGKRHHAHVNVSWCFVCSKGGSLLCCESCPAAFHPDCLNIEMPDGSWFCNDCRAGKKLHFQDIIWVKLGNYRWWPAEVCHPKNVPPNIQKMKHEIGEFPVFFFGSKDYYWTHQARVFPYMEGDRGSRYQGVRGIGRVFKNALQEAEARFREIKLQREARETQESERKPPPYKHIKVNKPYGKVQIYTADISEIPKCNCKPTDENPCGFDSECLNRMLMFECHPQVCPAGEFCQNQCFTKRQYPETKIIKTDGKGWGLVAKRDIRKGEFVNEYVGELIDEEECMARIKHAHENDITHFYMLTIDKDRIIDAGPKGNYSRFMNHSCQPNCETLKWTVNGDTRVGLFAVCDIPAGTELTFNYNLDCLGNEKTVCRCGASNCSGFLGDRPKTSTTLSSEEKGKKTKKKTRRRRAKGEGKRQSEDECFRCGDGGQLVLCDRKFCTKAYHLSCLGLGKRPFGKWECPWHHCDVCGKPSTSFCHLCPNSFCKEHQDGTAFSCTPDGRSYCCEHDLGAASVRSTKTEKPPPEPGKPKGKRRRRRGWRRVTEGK

[15] = target: T6, Interleukin-8 (Homo sapiens, UniProt P10145); test: Dose Response confirmation of uHTS small molecule hits for cystic fibrosis induced NFkb Inhibitors in a TNFa-induced IL8 counterscreen.; type: functional; conditions: read-out: IC50_Mean
T6 sequence (P10145 whole entry): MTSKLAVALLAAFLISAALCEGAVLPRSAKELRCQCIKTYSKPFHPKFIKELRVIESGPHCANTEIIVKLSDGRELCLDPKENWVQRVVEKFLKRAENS

[16] = control 3'UTR Renilla luciferase suppression, dose response, counter-screen for Shn3 inhibitor project, cell-based, Clone20-Shn3RL, cherry-picked (AID 624133); type: functional
[17] = Shn3 3'UTR reporter inhibitors, dose response, cell-based, Clone20 osteoblasts, firefly luciferase, cherry-picked (AID 624132); type: functional;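 also: firefly luciferase luminescence from reporter carrying the Shn3 3'UTR in osteoblasts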
[18] = cytotoxicity in HEK-293T cells, dose response, cytotoxicity control for BCR NF-kB inhibitor project, luminescence, B-cell screen hits (AID 489021); type: functional, cell-based;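 also: HEK-293T cells carrying an NF-kB luciferase reporter; cells exposed to compound for about 14 hours before viability readout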
[19] = target: T6, Interleukin-8; test: Dose Response confirmation of uHTS small molecule hits for cystic fibrosis induced NFkb Inhibitors in a PAF-induced IL8 counterscreen.; type: functional; conditions: read-out: IC50_Mean
[20] = target: T7, Microphthalmia-associated transcription factor (Homo sapiens, UniProt O75030); test: TRPM1 promoter luciferase signal decrease, dose response, MITF inhibitor project, cell-based, SK-MEL-5, cherry-picked, set 3 (AID 493073); type: functional
T7 sequence (O75030 whole entry): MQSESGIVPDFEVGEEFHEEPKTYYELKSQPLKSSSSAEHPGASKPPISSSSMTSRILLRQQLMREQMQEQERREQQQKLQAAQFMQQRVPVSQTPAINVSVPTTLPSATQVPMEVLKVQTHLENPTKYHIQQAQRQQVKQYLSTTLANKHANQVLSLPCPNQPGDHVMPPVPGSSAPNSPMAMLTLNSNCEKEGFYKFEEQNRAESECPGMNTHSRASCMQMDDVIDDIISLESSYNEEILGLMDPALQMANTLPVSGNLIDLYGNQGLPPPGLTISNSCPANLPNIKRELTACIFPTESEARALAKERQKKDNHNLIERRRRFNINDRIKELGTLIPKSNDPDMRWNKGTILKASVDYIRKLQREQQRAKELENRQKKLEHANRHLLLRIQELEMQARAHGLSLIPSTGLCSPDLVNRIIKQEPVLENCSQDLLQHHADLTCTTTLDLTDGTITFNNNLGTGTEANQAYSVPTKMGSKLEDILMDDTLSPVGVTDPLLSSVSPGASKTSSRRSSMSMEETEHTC

[21] = HepG2 cell cytotoxicity, dose response, cytotoxicity control for Shn3 inhibitor project, CellTiter-Glo, cherry-picked (AID 624134); type: functional, cell-based

Oc1cc(OCc2ccccc2)ccc1-c1[nH]ncc1-c1ccccc1
EC50 [1]: 2.88 µM (active) | EC50 [2]: > 54.7 µM (inactive) | EC50 [3]: 10.5 µM (active) | EC50 [4]: > 150 µM (not active) | EC50 [5]: > 55.9 µM (inactive) | AC50 [6]: 9.12 µM (active) | EC50 [7]: > 54.7 µM (inactive) | IC50 [8]: 16.9 µM (inactive)

O=C1c2ccccc2C(=O)c2cc(S(=O)(=O)Nc3ccccc3)ccc21
EC50 [9]: 12.1 µM (active) | AC50 [10]: 29.8 µM (active) | EC50 [11]: > 104 µM (inactive)

NC1=CC(=O)C(=O)c2ccccc21 [4-AMINO-[1,2]NAPHTHOQUINONE]
AC50 [12]: 107 µM (active) | IC50 [13]: 34 µM (inactive) | AC50 [14]: 1.74 µM (active)

CC(C)(C)C(=O)/C(=C/c1ccncc1)n1cncn1
IC50 [15]: 1.25 µM (active) | AC50 [16]: 7.23 µM (active) | AC50 [17]: 3.27 µM (active) | IC50 [18]: > 80 µM (inactive) | IC50 [19]: 0.607 µM (active) | AC50 [20]: 6.63 µM (active) | AC50 [21]: 16.8 µM (active)
